Measured values as given in paper PMC5743070 (The Journal of Biological Chemistry, 2017).

Experiments:
[1] = target: T1, TTD–PHD (UHRF1_126–366) (Homo sapiens, UniProt Q96T88); assay: (1H-15N) TROSY NMR titration of TTD–PHD; assay type: binding
T1 construct: His tag (TEV-cleavable) (N); made in house
T1 sequence (Q96T88 126-366): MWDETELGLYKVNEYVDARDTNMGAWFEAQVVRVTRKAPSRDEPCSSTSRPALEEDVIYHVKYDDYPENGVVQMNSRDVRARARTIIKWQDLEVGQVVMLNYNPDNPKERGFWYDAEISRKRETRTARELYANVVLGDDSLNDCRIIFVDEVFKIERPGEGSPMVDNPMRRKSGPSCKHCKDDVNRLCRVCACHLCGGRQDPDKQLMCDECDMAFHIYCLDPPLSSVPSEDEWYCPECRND
Protocol: Exchange broadening is clearly observed for Arg^282, Gly^284, Asp^291, Asn^292, Met^294, and Ser^301 amide resonances at 1:3 protein/BPC ratios, with perturbations also seen with Gly^286 and Gly^299 (Fig. 4 and supplemental Fig. S6).
(§1) NMR samples were buffered in 20 mM sodium phosphate (pH 7.5), 150 mM NaCl, 5 mM DTT, 5 mM β-mercaptoethanol, 2 mM TCEP, and 10 μM ZnSO4. The protein concentration was between 200 and 300 μM for all samples. The data were collected at 25 °C on Bruker spectrometers equipped with cryoprobes and operating at 500, 600, or 800 MHz. The assignment of backbone TTD–PHD resonances was accomplished using the ABACUS method ([29]) for which standard backbone and ^15N-edited NOESY spectra were collected using ^15N/^13C/^2H- or ^15N/^13C-labeled protein. All 3D experiments were acquired using non-uniform sampling and processed using the software MDDGUI ([30]) or qMDD ([31]). ^15N-Labeled TTD–PHD was used to acquire ^15N T1 and T2 relaxation and ^1H-^15N heteronuclear NOE measurements ([32]) collected using standard Bruker pulse schemes in an interleaved manner. For T1 measurements, the variable delay was set to 0.1, 0.4, 0.8, 1.5, 2.0, 2.5, 3.5, and 5 s. For T2 measurements, the variable delay was set to 16, 32, 48, 64, 80, 96, 128, and 144 ms. The D1 was 3 s for all experiments. Reported values were the average from two measurements. All spectra were processed using NMRPipe ([33]) and analyzed with SPARKY ([34]).

[2] = target: T2, TTD (UHRF1_121–286) (Homo sapiens, UniProt Q96T88); assay: HSQC competition of BPC and linker peptide on TTD; assay type: binding; conditions: BPC 2.4 mM, linker peptide 3.0 mM, 5% DMSO; I211, I212 and E281 resonances in HSQC
T2 construct: UHRF1_121–286 corresponding to the TTD; made in house
T2 sequence (Q96T88 121-286): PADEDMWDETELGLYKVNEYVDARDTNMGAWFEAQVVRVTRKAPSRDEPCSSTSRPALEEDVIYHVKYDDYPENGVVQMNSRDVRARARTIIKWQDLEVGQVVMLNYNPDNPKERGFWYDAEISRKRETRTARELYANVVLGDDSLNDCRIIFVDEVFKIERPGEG
Protocol: as §1, with “([34]). […]” for “([34]).”
trated by the perturbation of I211, I212 and E281 resonances in HSQC spectra of the TTD in a competition assay. […]

[3] = target: T1, TTD–PHD (UHRF1_126–366); assay: ITC of H3 peptide binding to TTD–PHD
Protocol: A preliminary peptide injection of 0.06 μl was followed by subsequent 2-μl injections into the sample cell containing 167 μl of 50 μM TTD–PHD. Where indicated, 1.5 mM BPC or 1.5 mM PBR peptide was included in the injection syringe and sample cell. The reported KD and n values are based on the average from two measurements. For ITC measurements of TTD (UHRF1_121–286) interaction with BPC, the protein was buffered in 20 mM Tris (pH 7.4), 50 mM NaCl, and 5% DMSO. BPC was brought to a concentration of 2.5 mM and injected into the sample cell containing 40 μM protein. The data were acquired on a Nano ITC from TA Instruments at 25 °C and fitted with an independent-binding site model using NanoAnalyze software (v3.7.0).
ITC curves showing TTD-PHD binding to methylated (red) and unmethylated (black) H3 peptide.
(1 picture or pasted object on this page, not shown here)

SMILES: N=C(N)N1CCC(Cc2ccccc2)CC1 [BPC, 4-benzylpiperidine-1-carboximidamide]
- effect on linker resonances of TTD–PHD ([1]; (1H-15N) TROSY, ~250 μM protein/750 μM ligand): significant conformational broadening and/or movement of amide peaks
- effect on TTD–PHD conformation ([1]; Fig. 4): promote open TTD–PHD conformations
- competition for the TTD groove [2]: compete directly for the TTD groove
- effect on TTD–PHD binding affinity for the histone peptide ([3]; 1.5 mM BPC (4% DMSO) or 1.5 mM PBR peptide, H3K9me3(1–15)): reduces the TTD–PHD binding affinity for the histone peptide
- increase of KD for H3K9me3 (effect of added ligand) ([3]; 1.5 mM BPC or PBR peptide in syringe and cell, vs apo TTD–PHD): ~5 fold
